This experiment addresses T1, Alcaligenes faecalis Penicillin G acylase, wild type (α subunit SEQ ID NO:27, β subunit SEQ ID NO:32) (Alcaligenes faecalis, UniProt O34142).
T1 construct: alpha 202 aa, beta 551 aa; likely recombinant, E. coli host
T1 sequence (O34142 27-228): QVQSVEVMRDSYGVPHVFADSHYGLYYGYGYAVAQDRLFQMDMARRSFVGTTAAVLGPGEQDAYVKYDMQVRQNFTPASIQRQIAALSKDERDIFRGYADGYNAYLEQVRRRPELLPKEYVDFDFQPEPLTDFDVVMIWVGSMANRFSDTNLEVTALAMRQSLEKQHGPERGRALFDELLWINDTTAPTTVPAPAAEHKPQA
T1 sequence (O34142 266-816): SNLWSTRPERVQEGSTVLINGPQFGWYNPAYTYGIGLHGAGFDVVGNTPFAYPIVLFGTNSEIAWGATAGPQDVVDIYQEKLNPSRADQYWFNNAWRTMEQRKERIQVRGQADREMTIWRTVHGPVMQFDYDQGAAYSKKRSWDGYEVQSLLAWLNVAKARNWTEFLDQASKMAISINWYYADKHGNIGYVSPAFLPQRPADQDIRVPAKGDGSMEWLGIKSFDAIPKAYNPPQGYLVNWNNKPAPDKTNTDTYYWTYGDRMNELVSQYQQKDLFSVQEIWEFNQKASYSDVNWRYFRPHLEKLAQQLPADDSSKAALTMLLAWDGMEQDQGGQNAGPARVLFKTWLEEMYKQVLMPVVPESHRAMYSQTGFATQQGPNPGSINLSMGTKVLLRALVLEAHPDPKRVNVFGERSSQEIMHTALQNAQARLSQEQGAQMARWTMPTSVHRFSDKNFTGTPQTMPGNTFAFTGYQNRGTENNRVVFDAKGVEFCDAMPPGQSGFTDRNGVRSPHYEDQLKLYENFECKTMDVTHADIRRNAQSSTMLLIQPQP
The experiment can be described thus: Deacylation kinetics and phenylacetic acid product inhibition, wild type PenG acylase. The format is biochemical. Particulars: Table 8, wt AF; NIPAB, 0.1 M NaH2PO4, pH 7.5, 25° C. How it is done:
In order to determine enzymatic activity the acylases were incubated with substrate at room temperature in buffered solution. In case β-lactamase impurity was expected to be present in the enzyme preparations, 1.0 mM -lactamase inhibitor 6-bromo-penicillanic acid was added to the assay. The reactions were stopped by adding an excess PMSF. For some mutants which were less sensitive to PMSF inhibition, the reactions were stopped by adding 0.5 M HCl or 0.5 M acetic acid until the pH was between 3 and 4. When reactions were subsequently analysed by HPLC, the reactions were stopped by dilution with the correponding elution solvent (see table 1). […]
The composition of the reaction mixtures was determined by high-performanceliquid chromatography (HPLC)(table 1). Concentrations were determined by using standards of known concentration.
In a continuous assay Penicillin G acylase was assayed spectro-fotometrically with the chromogenic substrate NIPAB [6-nitro-3-phenylacetamido-benzoic acid]. The liberation of 3-amino-6-nitrobenzoic acid was monitored by measuring the extinction at 405 nm in a Kontron 610 kinetic spectrofotometer. […]
Initial rate measurements were performed with excess substrate over the enzyme. Catalytic parameters were derived from least-squares fitting of the measured initial rates plotted for various substrate concentrations according to the Michaelis-Menten equation. […]

Take `O=C(Cc1ccccc1)Nc1ccc([N+](=O)[O-])c(C(=O)O)c1` [NIPAB, 6-nitro-3-phenylacetamido-benzoic acid]: the Vmax was found to be 37.0 U/mg.

The values above are taken from patent US6033823A, “Mutated penicillin G acylase genes” (priority 1994, dated 2000).
